Data on 1 molecule can be found in ChEMBL document CHEMBL5532666 (J Med Chem, 2024).

Activity calls are given as the source filed them. The calls are words filed in the database; no cut-off is given here.

A word on the EC50: it is the midpoint of the concentration-response curve. A high value points to lower potency in that assay. As usually defined, the Kd is the concentration at which binding is half-saturated. As a reminder, the ΔTm is the shift of the melting midpoint relative to a reference.

The nature of data set [1]: Metabolic stability in Sprague-Dawley rat liver microsomes assessed as parent compound remaining at 10 uM preincubated with NADPH for 5 mins followed by microsomal addition and measured upto 60 mins by HPLC analysis. The class given is ADME, Microsome. To be noted: time < 65 min, read-out: Stability. For orientation: Liver microsomes are vesicles of endoplasmic reticulum, rich in cytochrome P450 enzymes.

Data set [2] is described as follows: Toxicity in human HCT-116 cells expressing FUCCI assessed as cells with healthy nuclei at 1 to 10 uM measured after 24 hrs by Hoechst33342 staining based analysis relative to control. The class given is cell-based. To be noted: hct-116, 24 h, dose 1-10 µM.
Data set [3] deals with T1, Serine/threonine-protein kinase 26 (Homo sapiens, UniProt Q9P289). As to the kind of experiment: Binding affinity to C-terminal full length human MST4 expressed in permeabilized HEK293T cells incubated for 2 hrs by NanoBRET assay. Format: cell-based. (In general: In BRET a luciferase serves as donor, and the signal depends on an acceptor being close.)
Target sequence in this assay (Q9P289 whole entry): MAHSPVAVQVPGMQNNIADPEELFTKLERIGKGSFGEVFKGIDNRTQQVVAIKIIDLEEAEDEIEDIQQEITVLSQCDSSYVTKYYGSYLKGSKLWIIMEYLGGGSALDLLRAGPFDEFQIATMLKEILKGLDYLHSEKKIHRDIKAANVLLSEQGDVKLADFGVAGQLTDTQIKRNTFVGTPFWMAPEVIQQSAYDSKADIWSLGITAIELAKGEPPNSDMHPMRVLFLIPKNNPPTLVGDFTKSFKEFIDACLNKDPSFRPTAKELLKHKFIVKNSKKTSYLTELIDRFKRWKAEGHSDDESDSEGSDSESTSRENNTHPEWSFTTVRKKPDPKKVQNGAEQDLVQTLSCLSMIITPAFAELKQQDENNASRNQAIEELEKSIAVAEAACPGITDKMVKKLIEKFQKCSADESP
For data set [4], the system named is HCT-116. Description: Cell cycle arrest in human HCT-116 cells expressing […] assessed as G2/M phase cells at 10 uM incubated for 72 hrs by Hoechst33342 staining based analysis (reference value: 38%). The class given is functional.
Data set [5] concerns the target T1, Serine/threonine-protein kinase 26. Description: Binding affinity to N-terminal 6His-tagged TEV fused MST4 (unknown origin) expressed in Escherichia coli BL21 (DE3) cells assessed as dissociation constant by ITC analysis.
Target sequence in this assay (Q9P289 whole entry): as above
Data set [6] has as its target T2, LIM domain kinase 2 (Homo sapiens, UniProt P53671). Description: Inhibition of wildtype LIMK2 (unknown origin) assessed as residual activity at 1 uM relative to control.
Target sequence in this assay (P53671 whole entry, looked up, the tested form may be a part): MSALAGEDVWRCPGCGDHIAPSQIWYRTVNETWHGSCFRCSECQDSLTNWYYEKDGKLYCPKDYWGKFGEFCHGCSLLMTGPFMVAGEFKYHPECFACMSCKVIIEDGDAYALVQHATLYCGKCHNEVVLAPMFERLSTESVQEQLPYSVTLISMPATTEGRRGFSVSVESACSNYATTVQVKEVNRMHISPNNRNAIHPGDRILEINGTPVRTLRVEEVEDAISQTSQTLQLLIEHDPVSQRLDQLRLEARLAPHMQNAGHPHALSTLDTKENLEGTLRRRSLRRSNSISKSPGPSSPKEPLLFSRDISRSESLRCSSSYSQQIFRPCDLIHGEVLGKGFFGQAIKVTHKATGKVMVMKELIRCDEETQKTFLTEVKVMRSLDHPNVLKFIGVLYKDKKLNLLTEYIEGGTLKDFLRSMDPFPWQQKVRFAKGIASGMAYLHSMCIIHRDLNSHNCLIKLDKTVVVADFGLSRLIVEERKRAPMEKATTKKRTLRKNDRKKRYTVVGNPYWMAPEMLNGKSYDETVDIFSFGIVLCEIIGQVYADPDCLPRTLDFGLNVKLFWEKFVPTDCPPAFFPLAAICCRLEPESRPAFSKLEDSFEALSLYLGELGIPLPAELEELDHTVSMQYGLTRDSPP
Data set [7] relates to HCT-116. As to the kind of experiment: Cell cycle arrest in human HCT-116 cells expressing […] assessed as G2/M phase cells at 1 uM incubated for 72 hrs by Hoechst33342 staining based analysis (reference value: 38%). The class given is functional.
Data set [8] has as its target T1, Serine/threonine-protein kinase 26. As to the kind of experiment: Binding affinity to N-terminal 6His-tagged TEV fused MST4 (unknown origin) expressed in Escherichia coli BL21 (DE3) cells assessed as change in binding enthalpy by ITC analysis. (In ITC the heat of successive injections is recorded.)
Target sequence in this assay (Q9P289 2-416 limits assumed): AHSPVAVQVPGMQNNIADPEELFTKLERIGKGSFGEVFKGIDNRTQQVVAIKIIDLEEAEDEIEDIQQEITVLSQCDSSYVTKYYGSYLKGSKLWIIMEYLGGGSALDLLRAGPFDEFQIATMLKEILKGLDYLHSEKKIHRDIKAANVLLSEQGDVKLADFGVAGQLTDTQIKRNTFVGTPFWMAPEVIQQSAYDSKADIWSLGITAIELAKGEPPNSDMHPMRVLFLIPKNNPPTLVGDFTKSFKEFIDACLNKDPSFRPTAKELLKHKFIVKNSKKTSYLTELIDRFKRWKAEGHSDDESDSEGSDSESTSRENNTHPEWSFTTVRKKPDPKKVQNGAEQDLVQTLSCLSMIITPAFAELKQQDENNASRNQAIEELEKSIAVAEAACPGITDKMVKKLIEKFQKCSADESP
The nature of data set [9]: Toxicity in human HCT-116 cells expressing FUCCI assessed as normalized cell count at 10 uM measured after 72 hrs by Hoechst33342 staining based analysis relative to control. To be noted: read-out: Activity.
Data set [10] concerns the target T1, Serine/threonine-protein kinase 26. Description: Inhibition of wildtype MST4 (unknown origin) assessed as residual activity at 1 uM relative to control.
Target sequence in this assay (Q9P289 2-416 limits assumed): as above
Data set [11] has as its target T2, LIM domain kinase 2. As to the kind of experiment: Binding affinity to LIMK2 (unknown origin) expressed in intact HEK293T cells incubated for 2 hrs by NanoBRET assay. Format: cell-based.
Target sequence in this assay (P53671 whole entry, the tested form may be a part): as the sequence (P53671 whole entry, looked up, the tested form may be a part) above
Data set [12] concerns the target T3, Serine/threonine-protein kinase RIO1 (Homo sapiens) (UniProt Q9BRS2).
T3 sequence (whole entry): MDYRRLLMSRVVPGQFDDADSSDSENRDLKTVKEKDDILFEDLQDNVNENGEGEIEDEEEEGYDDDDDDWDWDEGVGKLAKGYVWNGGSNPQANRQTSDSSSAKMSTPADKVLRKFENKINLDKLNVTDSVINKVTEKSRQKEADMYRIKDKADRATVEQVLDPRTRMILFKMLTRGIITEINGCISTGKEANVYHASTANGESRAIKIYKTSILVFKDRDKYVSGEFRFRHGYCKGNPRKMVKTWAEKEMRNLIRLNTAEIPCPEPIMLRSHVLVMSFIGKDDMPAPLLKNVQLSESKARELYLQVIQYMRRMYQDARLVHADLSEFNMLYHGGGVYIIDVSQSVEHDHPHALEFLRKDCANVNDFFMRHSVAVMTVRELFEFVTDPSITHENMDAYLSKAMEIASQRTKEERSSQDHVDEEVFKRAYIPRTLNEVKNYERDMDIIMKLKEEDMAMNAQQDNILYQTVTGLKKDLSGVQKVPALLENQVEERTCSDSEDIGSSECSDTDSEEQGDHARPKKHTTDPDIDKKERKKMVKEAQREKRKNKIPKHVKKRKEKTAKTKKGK
Description: Binding affinity to RIOK1 (unknown origin) assessed as thermal stabilization by measuring change in melting temperature by DSF analysis.

Data set [13] has as its system HCT-116. As to the kind of experiment: Cell cycle arrest in human HCT-116 cells expressing […] assessed as G1 phase cells at 10 uM incubated for 72 hrs by Hoechst33342 staining based analysis (reference value: 52%). Format: functional.

Take `O=C1NCCCCCNc2nc(c3ccccc3n2)Nc2cc1[nH]n2`: the remaining at 1 h, 10 µM in [1] came out at 88%. The Activity was determined as 80% in [2]; 33% with HCT-116 [4]; 38.2% on LIM domain kinase 2 [6]; 33% in the data set on HCT-116 [7]; 18% in data set [10]; 40% in the data set on HCT-116 [13]. Moreover, the values for the EC50 (in data set [3]; at LIM domain kinase 2 [11]) were 360 nM and 1780 nM, respectively. Also, the Kd in [5] was found to be 115 nM. In addition, the result in data set [8] was Active. Besides, in data set [9], the viability at 72 h, 10 µM was < 30%. Besides, the ΔTm in data set [12] worked out at 5.1 °C.
